From patent publication US20190151304A1, “METHODS AND PHARMACEUTICAL COMPOSITIONS FOR THE TREATMENT OF AUTOIMMUNE INFLAMMATORY” (INSERM (INSTITUT NATIONAL DE LA SANTÉ ET DE LA RECHERCJAE …, priority 2016, published 2019)

Assays:
DSS-induced colitis mice = DSS-induced colitis mice model (Disease Activity Index, colon length); type: in vivo, Balb/c mice; details: 5% DSS in drinking water; 20 μg daily ip, one week
Excerpt: FIG. 2: OXA ameliorates the DAI (weight and colitis score) of DSS-induced colitis mice. Mice were orally treated with 5% DSS for 7 days in the presence or in the absence of daily intraperitoneal injection of OxA (0.22 μmoles/kg). Left, determination of gain or loss of weight in the absence of DSS treatment (Control,▴), in the presence of DSS treatment (DSS,▪) and in the presence of DSS associated to OxA treatment (DSS+OxA,●). Right, evaluation of Disease Activity Index (DAI) scored by measuring weight, length of colon, diarrhea and blood presence in the stool in DSS untreated control mice (Control,A), in DSS treated mice (DSS,▪) and in DSS treated mice associated to OxA treatment (DSS+OxA,●).
FIG. 14: Effect of daily ip inoculation of OxA, Suvorexant and Almorexant on the length of colon from DSS—(dextran sulfate sodium) treated mice mimicking the acute ulcerative colitis disease. A. Mice were treated with 5% (w/v) DSS in drinking water and daily injected with 20 μg of OxA (OXA IP), 20 μg of Suvorexant (Suvo) or 20 μg of Almorexant (Almo). Control (wt) or treated DSS mice (DSS) were daily injected with 100 μl PBS. After one week of treatment, mice were sacrificed and the length of colon which represented a good marker of inflammation state, was measured. […] B. quantification of colon length from 5 different DSS-treated mice injected with OxA (DSS+OXA IP), Almorexant (DSS+Almo), Suvorexant (DSS+Suvo) or not injected (WT and DSS). NS, no significant; *, p<0.05; ** p<0.001
Based on these observations, we have investigated the effect of Orexin A (OxA) on acute inflammation in mice treated with Dextran Sulfate Sodium (DSS). OxA was preferentially chosen in these experiments since the presence of two disulphide bridges confers it more stability. DSS induces acute colitis characterized by weight loss, bloody diarrhea, intestinal ulcerations and infiltrations with granulocytes.
DSS-induced colitis mice models: Balb/c mice were orally treated by 5% (w/v) of Dextran Sulfate Sodium (DSS) for 7 days. Orexin treatment was carried out in DSS treated mice by daily intraperitoneal injection of OxA (0.22 μmoles/kg) for 7 days. Weight and colitis symptoms (diarrhea, blood in the stool . . . ) for each mouse was daily measured. After 7 days of treatment, animals were sacrificed and colons were resected to further analyses (size, histological aspect, cytokine assays).
The inventors have thus investigated the effect of daily intraperitoneal inoculation of OxA, Suvorexant and Almorexant in the experimental context of EXAMPLE 1 (colitis). In particular they investigated the effects of the drugs on the length of colon from DSS-(dextran sulfate sodium) treated mice mimicking the acute ulcerative colitis disease. […]

OX1R = molecular target: T1, OX1R (Homo sapiens, UniProt O43613, A280G); assay: Ca2+ mobilization assay in HEK-OX1R cells (FluoForte); type: cell-based; details: pre-incubation 1 μM for 1 h, then 1 μM OxA
T1 construct: HEK cells expressing recombinant native OX1R (HEK-OX1R); expressed in transfected cells; host or cells: HEK cells (HEK-OX1R)
T1 sequence (O43613 1-425 A280G): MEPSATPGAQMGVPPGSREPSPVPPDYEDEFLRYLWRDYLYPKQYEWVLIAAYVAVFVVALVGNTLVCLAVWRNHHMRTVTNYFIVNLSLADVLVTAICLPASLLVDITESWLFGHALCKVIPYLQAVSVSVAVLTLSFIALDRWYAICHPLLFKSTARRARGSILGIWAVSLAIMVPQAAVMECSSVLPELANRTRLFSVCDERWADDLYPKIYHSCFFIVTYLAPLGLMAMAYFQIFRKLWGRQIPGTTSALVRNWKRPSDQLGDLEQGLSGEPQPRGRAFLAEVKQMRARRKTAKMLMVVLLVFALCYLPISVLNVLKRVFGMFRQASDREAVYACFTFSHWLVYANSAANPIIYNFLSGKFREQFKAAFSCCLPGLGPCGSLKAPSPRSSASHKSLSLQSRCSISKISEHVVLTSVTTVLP

HEK-OX1R cells = assay: Cells growth determination, HEK-OX1R cells; type: cell-based; details: 48 hr; OxA 0.1 μM, SB408124 increasing concentrations
Procedure: (§1) FIG. 12: Determination of the inhibition of cellular growth of HEK-OX1R cells and colon adenocarcinoma cells (HT-29) induced by 0.1 μM of OxA or various concentrations of SB408124 antagonist. HEK-OX1R cells (black column) and HT-29 cells (white column) were incubated with 0.1 μM of OxA and indicated increasing concentration of SB408124, and cells were counted after 48 hr incubation. Results are expressed as the percentage of total viable cells.
(§2) Cells growth determination and apoptosis assay: HEK-OX1R cells or colon adenocarcinoma HT-29 cells were seeded, grown and maintained at 37° C. in a humidified 5% CO2/air incubator. After 24 hr culture, cells were treated with or without Orexin-A peptide or SB408124 antagonist, previously dissolved in DMSO, to be tested at the concentration indicated in the figure legends. After 48 hr of treatment, adherent cells were harvested by Trip1E (Life Technologies, Saint Aubin, France) and manually counted. Apoptosis was determined using the Guava PCA system and the Guava nexin kit.

[1] = system: colon adenocarcinoma HT-29 cells; assay: Cells growth determination, HT-29 cells; type: cell-based; details: 48 hr; OxA 0.1 μM, SB408124 increasing concentrations
Procedure: as §1, §2

[2] = system: colon adenocarcinoma HT-29 cells; assay: Apoptosis assay (annexin V-PE binding, Guava nexin kit) in HT-29 cells; type: cell-based; details: 48 h; orexin-A 1 μM, SB408124 various concentrations
Procedure: FIG. 13: Effect of orexin-A and SB408124 antagonist on apoptosis in OX1R expressing colon adenocarcinoma cells, HT-29. HT-29 cells were challenged with 1 μM orexin-A or various concentration of SB408124 for 48 h. Apoptosis was measured by determination of annexin V-PE binding, and results are expressed as the percentage of apoptotic cells. Results are means±SE of three experiments. ***P<0.001.
as §2

| Structure (SMILES) | Protection from DSS induced acute ulcerative colitis (length of colon) (DSS-induced colitis mice) | Effect on OxA-induced Ca2+ mobilization in HEK-OX1R cells (OX1R) | Inhibition of cellular growth of HEK-OX1R cells (HEK-OX1R cells) | Inhibition of cellular growth of HT-29 cells [1] | Apoptosis in HT-29 cells [2] |
| --- | --- | --- | --- | --- | --- |
| CNC(=O)[C@@H](c1ccccc1)N1CCc2cc(OC)c(OC)cc2[C@@H]1CCc1ccc(C(F)(F)F)cc1 [Almorexant] | protect mice from DSS induced acute ulcerative colitis disease |  |  |  |  |
| Cc1cc(NC(=O)Nc2ccc(N(C)C)cc2)c2cc(F)cc(F)c2n1 [SB408124] |  | totally abolished | strong inhibition in a dose-dependent manner | strong inhibition in a dose-dependent manner | able to induce in a dose-dependent manner cell apoptosis |
| Cc1ccc(-n2nccn2)c(C(=O)N2CCN(c3nc4cc(Cl)ccc4o3)CC[C@H]2C)c1 [Suvorexant] | protect mice from DSS induced acute ulcerative colitis disease |  |  |  |  |
